Data on two compounds can be found in PMC3235152, “Heteromeric Anopheline Odorant Receptors Exhibit Distinct Channel Properties” (PLoS ONE, 2011).

SMILES strings stand for the structures.

For one experiment, the system named is T1, AgOrco + AgOr65.
T1 construct: gene Orco; heteromer of unknown stoichiometry; VUAA1 acts on Orco, odorant on Or65, ruthenium red at the pore
The experiment is described as follows: Ca++ imaging concentration-response in HEK cells. The class given is cell-based, Anopheles gambiae. Conditions: Orco agonist; AgOrco homomers may coexist.

The target in a further experiment is T2, AgOrco + AgOr8 (Anopheles gambiae, UniProt Q7PUT5+Q7QCC7).
T2 construct: gene Orco; heteromer of unknown stoichiometry; VUAA1 acts on Orco, odorant on Or8, ruthenium red at the pore
T2 sequence (Q7QCC7 1-478): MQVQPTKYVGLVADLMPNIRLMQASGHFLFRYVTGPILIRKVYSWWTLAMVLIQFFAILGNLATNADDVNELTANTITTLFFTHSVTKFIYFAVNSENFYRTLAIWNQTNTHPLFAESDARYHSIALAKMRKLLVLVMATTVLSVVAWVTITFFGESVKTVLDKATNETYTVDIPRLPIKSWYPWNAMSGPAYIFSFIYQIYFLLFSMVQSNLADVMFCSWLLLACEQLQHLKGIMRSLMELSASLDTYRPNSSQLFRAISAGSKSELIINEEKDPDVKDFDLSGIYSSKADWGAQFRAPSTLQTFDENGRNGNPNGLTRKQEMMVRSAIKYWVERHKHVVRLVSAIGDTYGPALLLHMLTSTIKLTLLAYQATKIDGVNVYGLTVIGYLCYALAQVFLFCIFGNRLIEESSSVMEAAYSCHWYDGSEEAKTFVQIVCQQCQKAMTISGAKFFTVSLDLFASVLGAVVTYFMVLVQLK
T2 sequence (Q7PUT5 1-399): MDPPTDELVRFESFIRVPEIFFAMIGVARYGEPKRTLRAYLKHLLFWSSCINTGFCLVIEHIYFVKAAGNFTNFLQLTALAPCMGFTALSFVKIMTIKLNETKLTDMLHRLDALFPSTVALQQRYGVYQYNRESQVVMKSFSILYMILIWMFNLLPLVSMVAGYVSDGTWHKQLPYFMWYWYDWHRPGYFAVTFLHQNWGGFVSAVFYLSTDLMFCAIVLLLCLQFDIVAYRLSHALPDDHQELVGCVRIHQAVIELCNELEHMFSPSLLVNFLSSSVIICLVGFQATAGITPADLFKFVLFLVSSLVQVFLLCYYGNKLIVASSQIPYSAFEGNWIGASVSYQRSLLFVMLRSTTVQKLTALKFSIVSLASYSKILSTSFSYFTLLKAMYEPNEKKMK
The experiment is described as follows: Ca++ imaging concentration-response in HEK cells. Format: cell-based.

Another experiment has as its target T3, AgOrco (Anopheles gambiae, UniProt Q7QCC7).
T3 construct: gene Orco; Orco homomer, stoichiometry unknown
T3 sequence (Q7QCC7 1-478): T2 sequence (Q7QCC7 1-478)
The experiment is described as follows: Ca++ imaging concentration-response in HEK cells. The class given is cell-based.

The target of experiment [1] is T4, AgOrco + AgOr10 (Anopheles gambiae, UniProt B5U0U7+Q7QCC7).
T4 construct: gene Orco; heteromer of unknown stoichiometry; VUAA1 acts on Orco, odorant on Or10, ruthenium red at the pore
T4 sequence (Q7QCC7 1-478): T2 sequence (Q7QCC7 1-478)
T4 sequence (B5U0U7 1-375): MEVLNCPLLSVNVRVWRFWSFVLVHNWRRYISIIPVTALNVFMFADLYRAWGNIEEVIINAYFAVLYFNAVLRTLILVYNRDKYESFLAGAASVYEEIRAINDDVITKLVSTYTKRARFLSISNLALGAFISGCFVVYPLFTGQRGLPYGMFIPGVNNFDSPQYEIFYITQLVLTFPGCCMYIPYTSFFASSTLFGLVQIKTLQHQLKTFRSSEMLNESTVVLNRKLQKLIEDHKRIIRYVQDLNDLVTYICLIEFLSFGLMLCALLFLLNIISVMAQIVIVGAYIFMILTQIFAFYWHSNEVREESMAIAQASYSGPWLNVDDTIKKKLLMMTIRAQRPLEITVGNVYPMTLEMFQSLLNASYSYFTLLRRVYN
The experiment is described as follows: Ca++ imaging concentration-response in HEK cells. Format: cell-based.

The test system of the next experiment is T5, AgOrco + AgOr28.
T5 construct: gene Orco; heteromer of unknown stoichiometry; VUAA1 acts on Orco, odorant on Or28, ruthenium red at the pore
The experiment is described as follows: Ca++ imaging concentration-response in HEK cells. The class given is cell-based, Anopheles gambiae. The settings on record: Orco agonist; AgOrco homomers may coexist.

Experiment [2] deals with T4, AgOrco + AgOr10. The experiment is described as follows: whole-cell patch clamp, block of agonist-induced current. Format: cell-based. The settings on record: 100 µM benzaldehyde as agonist; -60 mV; pH 7.35; 20–22°C; pore blocker, noncompetitive with VUAA1.

For `CCc1ccc(NC(=O)CSc2nnc(-c3cccnc3)n2CC)cc1` [VUAA1, N-(4-ethylphenyl)-2-((4-ethyl-5-(3-pyridinyl)-4H-1,2,4-triazol-3-yl)thio)acetamide], the EC50 with AgOrco + AgOr65 was −4.42±0.02 logM; on AgOrco + AgOr8, 13.2 µM; at AgOrco, 49 µM; at AgOrco + AgOr10 [1] it was 12.3 µM; with AgOrco + AgOr28 it was −4.47±0.02 logM.
With `N.N.N.N.N.N.N.N.N.N.N.N.N.N.[Cl-].[Cl-].[Cl-].[Cl-].[Cl-].[Cl-].[O-2].[O-2].[Ru+3].[Ru+3].[Ru+4]` [ruthenium red], the “% current reduction at 100 μM” value on AgOrco + AgOr10 [2] is 78.5±1.4%.
